Assay type in all cases: cell-based
The target of one test is T1, human MR (full-length) (Homo sapiens, UniProt P08235).
T1 construct: expression vectors encoding full-length steroid receptors: pcDNA3-hAR, pcDNA3-hGR and pcDNA3-hMR; expressed in transfected cells; host or cells: U2OS
T1 sequence (P08235 1-984): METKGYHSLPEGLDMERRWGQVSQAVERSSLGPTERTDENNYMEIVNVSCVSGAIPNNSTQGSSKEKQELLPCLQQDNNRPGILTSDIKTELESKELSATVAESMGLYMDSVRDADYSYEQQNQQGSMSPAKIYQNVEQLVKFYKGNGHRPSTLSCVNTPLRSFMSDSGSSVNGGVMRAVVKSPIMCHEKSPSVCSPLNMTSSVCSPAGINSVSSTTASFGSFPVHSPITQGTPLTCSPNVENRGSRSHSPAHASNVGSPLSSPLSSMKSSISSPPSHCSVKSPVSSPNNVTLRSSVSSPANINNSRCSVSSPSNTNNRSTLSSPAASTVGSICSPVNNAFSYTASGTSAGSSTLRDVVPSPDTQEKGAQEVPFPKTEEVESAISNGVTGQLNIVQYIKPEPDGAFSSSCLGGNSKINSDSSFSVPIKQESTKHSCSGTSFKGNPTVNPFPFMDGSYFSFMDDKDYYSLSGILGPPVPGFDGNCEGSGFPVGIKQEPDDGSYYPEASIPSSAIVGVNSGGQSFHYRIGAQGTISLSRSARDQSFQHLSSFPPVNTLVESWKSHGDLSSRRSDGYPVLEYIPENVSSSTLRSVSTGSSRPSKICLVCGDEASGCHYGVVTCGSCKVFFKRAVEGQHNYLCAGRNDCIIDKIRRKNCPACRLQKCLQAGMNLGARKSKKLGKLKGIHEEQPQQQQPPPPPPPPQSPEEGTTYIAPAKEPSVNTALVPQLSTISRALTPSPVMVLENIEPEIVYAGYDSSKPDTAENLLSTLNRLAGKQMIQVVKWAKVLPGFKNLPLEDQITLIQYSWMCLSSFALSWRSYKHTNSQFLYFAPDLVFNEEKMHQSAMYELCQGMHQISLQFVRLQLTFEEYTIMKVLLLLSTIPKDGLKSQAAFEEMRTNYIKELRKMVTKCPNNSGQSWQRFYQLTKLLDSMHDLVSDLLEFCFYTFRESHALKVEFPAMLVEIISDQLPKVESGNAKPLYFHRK
The test can be described thus: U2OS-MR/MMTV luciferase reporter cell line (full-length receptor). As to conditions: for Log EC50: agonist mode, 20 h, log10 of molar EC50, mean ± SEM; for Log EC50 / Log IC50: MR/MMTV; for Log IC50: in the presence of 1 nM aldosterone, log10 of molar IC50, mean ± SEM. (Reporter assays use an easily measured gene product as a stand-in for the process of interest.)

The target of another test is T2, human AR (full-length) (Homo sapiens, UniProt P10275).
T2 construct: expression vectors encoding full-length steroid receptors: pcDNA3-hAR and pcDNA3-hGR; host or cells: U2OS
T2 sequence (P10275 1-920): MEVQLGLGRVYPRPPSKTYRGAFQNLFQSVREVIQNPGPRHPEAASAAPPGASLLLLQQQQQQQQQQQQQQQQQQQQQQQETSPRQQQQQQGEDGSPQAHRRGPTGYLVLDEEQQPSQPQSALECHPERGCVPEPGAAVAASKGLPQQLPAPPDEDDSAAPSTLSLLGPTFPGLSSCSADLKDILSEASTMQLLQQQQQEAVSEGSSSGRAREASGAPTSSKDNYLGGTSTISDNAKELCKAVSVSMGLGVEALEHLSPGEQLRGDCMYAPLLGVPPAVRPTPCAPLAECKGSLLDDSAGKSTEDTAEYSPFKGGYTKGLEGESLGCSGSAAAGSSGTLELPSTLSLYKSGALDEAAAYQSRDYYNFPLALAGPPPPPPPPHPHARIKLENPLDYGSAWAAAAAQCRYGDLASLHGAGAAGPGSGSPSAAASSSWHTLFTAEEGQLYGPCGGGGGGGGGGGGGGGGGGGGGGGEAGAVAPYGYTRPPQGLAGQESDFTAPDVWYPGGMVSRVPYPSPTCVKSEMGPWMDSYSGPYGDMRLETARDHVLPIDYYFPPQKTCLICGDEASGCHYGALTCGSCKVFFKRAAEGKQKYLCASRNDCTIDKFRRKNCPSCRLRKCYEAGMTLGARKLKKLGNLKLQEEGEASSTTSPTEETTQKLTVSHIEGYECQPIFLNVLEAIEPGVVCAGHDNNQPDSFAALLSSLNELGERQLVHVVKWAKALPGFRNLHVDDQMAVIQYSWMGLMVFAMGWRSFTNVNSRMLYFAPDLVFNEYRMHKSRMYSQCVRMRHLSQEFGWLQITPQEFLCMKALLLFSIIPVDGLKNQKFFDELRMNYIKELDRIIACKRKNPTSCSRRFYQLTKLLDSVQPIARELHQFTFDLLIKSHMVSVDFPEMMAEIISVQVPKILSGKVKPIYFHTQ
Nature of the test: U2OS-AR/3xGRE luciferase reporter cell line (full-length receptor). As to conditions: for Log EC50: agonist mode, 20 h, log10 of molar EC50, mean ± SEM; for Log EC50 / Log IC50: AR/3xGRE; for Log IC50: antagonist mode, in the presence of 0.05 nM dihydrotestosterone, log10 of molar IC50, mean ± SEM.

Test [1] deals with T3, AR-LBD fused to Gal4-DBD (co-expressed with full-length AR) (Homo sapiens, UniProt P10275).
T3 construct: the following primers were used for the amplification of the LBD region; expressed in transfected cells; host or cells: U2OS
T3 sequence (P10275 669-900 limits assumed): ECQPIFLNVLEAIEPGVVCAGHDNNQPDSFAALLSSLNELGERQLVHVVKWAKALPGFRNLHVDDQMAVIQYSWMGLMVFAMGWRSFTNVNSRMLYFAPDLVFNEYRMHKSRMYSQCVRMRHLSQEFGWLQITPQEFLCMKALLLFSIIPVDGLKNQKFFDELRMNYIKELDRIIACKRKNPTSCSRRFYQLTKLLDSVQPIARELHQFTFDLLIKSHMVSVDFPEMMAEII
The test can be described thus: U2OS-AR-LBD/9xGal4UAS luciferase reporter cell line. To be noted: for Log EC50: agonist mode, AR-LBD/9xGal4UAS, 20 h, log10 of molar EC50, mean ± SEM.

Molecules are shown by their SMILES. Like-named read-outs stand apart in the source and are kept apart here.

On to `CC[C@@H]1Cc2cc(O)ccc2C2=C1c1ccc(O)cc1C[C@H]2CC` (relative stereo) [R.R-THC, (R,R)-cis-diethyltetrahydro-2,8-chrysenediol], for which the “Log EC50” value is reported as greater than -5.40 M on human MR (full-length), greater than -5.00 M on human AR (full-length) and greater than -5.00 M in test [1]. For the same compound, the “Log IC50” value is -5.45 ± 0.22 M on human MR (full-length) (antagonist mode), -5.26 ± 0.28 M on human AR (full-length) and greater than -5.500 M in test [1].

The term EC50 denotes the midpoint of the concentration-response curve. As for `C[C@]12CCC(=O)C=C1CC[C@@H]1[C@@H]2[C@@H](O)C[C@]2(C=O)[C@@H](C(=O)CO)CC[C@@H]12` [Aldosterone, aldosterone], the EC50 (at human AR (full-length); in test [1]) was greater than 10 µM throughout.

`C[C@H]1C[C@H]2[C@@H]3CCC4=CC(=O)C=C[C@]4(C)[C@@]3(Cl)[C@@H](O)C[C@]2(C)[C@@]1(O)C(=O)CO` [Beclomethasone, beclomethasone]: on human MR (full-length), the “Log EC50” value is -7.97 ± 0.12 M. Moreover, on human MR (full-length) (antagonist mode), the “Log IC50” value is listed as greater than -5.00 M. Besides, the “activity profile in words” value on human MR (full-length) (full-length MR format, antagonist mode) is on record as “no sign of antagonistic activity”.

As to `C[C@]12C[C@H](O)[C@H]3[C@@H](CCC4=CC(=O)CC[C@@]43C)[C@@H]1CC[C@@H]2C(=O)CO` [Corticosterone, corticosterone], at human MR (full-length) (read-out: Log EC50 (converted)), the EC50 was 8.13e-05 µM.

Consider `C#C[C@]1(O)CC[C@H]2[C@@H]3CCC4=Cc5oncc5C[C@]4(C)[C@H]3CC[C@@]21C` [Danazol, danazol], for which the EC50 on human MR (full-length) (read-out: Log EC50 (converted)) was greater than 10 µM.

On to `O=c1c(-c2ccc(O)cc2)coc2cc(O)cc(O)c12` [Genistein, genistein], for which the EC50 (on human MR (full-length); at human AR (full-length); in test [1]) was greater than 10 µM throughout.

With `C[C@]12CC[C@@H]3c4ccc(O)cc4C[C@@H](CCCCCCCCC[S+]([O-])CCCC(F)(F)C(F)(F)F)[C@H]3[C@@H]1CC[C@@H]2O` (stereo partly drawn) [ICI 182.780], the “Log EC50” value (at human MR (full-length); at human AR (full-length); in test [1]) was greater than -5.00 M throughout. Further, the “Log IC50” value (at human MR (full-length) (antagonist mode); on human AR (full-length); in test [1]) was greater than -5.00 M each time.

Regarding `CCCc1c(-c2ccc(O)cc2)nn(-c2ccc(O)cc2)c1-c1ccc(O)cc1` [PPT, propyl pyrazole triol], the EC50 (on human MR (full-length) (read-out: Log EC50 (converted)); at human AR (full-length); in test [1]) was greater than 10 µM each time.

The IC50 is the midpoint of a concentration-inhibition curve. A lower IC50 goes with greater potency. Take `CCC(=O)[C@@]1(C)CC[C@H]2[C@@H]3CCC4=CC(=O)CCC4=C3CC[C@@]21C` [Promegestone (R5020), promegestone]: the EC50 (on human MR (full-length) (read-out: Log EC50 (converted)); on human AR (full-length); in test [1]) was greater than 10 µM each time. Besides, in test [1], the IC50 was 0.407 µM.

For `C[C@]12C=CC(=O)C=C1CC[C@H]1[C@@H]3C[C@@H](O)[C@](O)(C(=O)CO)[C@@]3(C)C[C@H](O)[C@@]12F` [Triamcinolone, triamcinolone], the EC50 on human MR (full-length) (read-out: Log EC50 (converted)) is 0.186 µM.

These data come from article PMC3234597, “Two Panels of Steroid Receptor Luciferase Reporter Cell Lines for Compound Profiling” (Combinatorial Chemistry & High Throughput Screening, 2011).
